How the values were obtained:
[1] = target: Human NOP Rluc-tagged fusion protein (N/OFQ peptide receptor fused to Renilla luciferase) (human) (UniProt P41146)
NOP receptor = conditions: cited from earlier work
mouse vas deferens = conditions: isolated mouse vas deferens; cited from earlier work
Text: On comparing the data with a wider range of pharmacological assays carried in vitro or in vivo, noticeable discrepancies are only apparent for a number of synthetic peptides that are known as NOP partial agonists. Such divergences are likely explained by the variations in stimulus/response coupling efficiency that characterize different pharmacological preparations. In fact, in accordance with classical receptor theory, the effect of a partial agonist can range from none to an almost full response, depending on the extent of amplification that the sensitivity of the signaling pathway exerts on ... || Also the estimates of antagonist potency derived from BRET analysis were in substantial agreement with similar determinations made in a variety of different pharmacological studies. […] We found, however, that a 3-fold increase in ...

Sequence of Human NOP Rluc-tagged fusion protein (N/OFQ peptide receptor fused to Renilla luciferase) (human) (P41146 whole entry, the tested form may be a part): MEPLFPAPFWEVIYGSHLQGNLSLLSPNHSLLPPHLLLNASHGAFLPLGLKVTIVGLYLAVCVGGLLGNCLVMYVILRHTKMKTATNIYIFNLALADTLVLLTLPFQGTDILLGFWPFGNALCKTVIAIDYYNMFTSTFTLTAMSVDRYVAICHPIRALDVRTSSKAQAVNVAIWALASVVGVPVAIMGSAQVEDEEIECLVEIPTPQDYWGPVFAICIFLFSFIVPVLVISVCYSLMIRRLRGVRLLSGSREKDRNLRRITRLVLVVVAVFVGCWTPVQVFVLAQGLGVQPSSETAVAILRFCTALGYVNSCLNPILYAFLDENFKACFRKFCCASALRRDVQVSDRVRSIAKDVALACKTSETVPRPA

pA2, rightward shift of the concentration-response curve of N/OFQ for arrestin coupling (BRET, whole cells); value as the sentence prints it, differs from Table 3 (pA2 (-log10 M)) [1] | Compound | antagonist potency estimate (pKB), [^35S]GTPγS binding (NOP receptor) | reversibility of antagonist action on washing (mouse vas deferens)
9.42 | UFP-101 (peptide) |  | 
 | Cc1cccc2c1CC[C@H](CN1CCC(c3c(Cl)cccc3Cl)CC1)C[C@@H]2O [SB-612111, (-)-cis-1-methyl-7-[[4-(2,6-dichlorophenyl)piperidin-1-yl]methyl]-6,7,8,9-tetrahy dro-5H-benzocyclohepten-5-ol] | 9.70 | remains unchanged even after 3 hours of repeated washing
